The results in this text go back to patent US20240415804A1, “METHOD OF TREATING PANCREATIC CANCER” (University of South Florida, priority 2022, published 2024).

For experiment [1], the system named is CD8+ T cells (CD3+CD8+CD4−). Put plainly: Flow cytometry of intra-tumoral CD8+ T cells and CD40L in KC-HPC mice. Type of experiment: in vivo, mouse. The conditions noted are these: API-treated vs vehicle-treated KC-HPC mice. Here is the method:
The inventors then assessed the expression of CD40 (a T cell co-stimulation marker) on M1 TAM (gated as MHC-II^+ and CD206) within the tumor from KC-HPC vs. KC-HPC-API mice. […] The femur and tibia were cut at the pelvic-hip joint and muscle was removed. The femurs and tibias were cut at the ends and flushed with a 30-gauge needle and 10 cc syringe filled with completed RPMI media until bone was white onto a petri dish. Pelleted bone marrow (BM) cells were treated with Red Blood Cell (RBC) lysis buffer (eBioscience, Waltham, MA, USA), according to the manufacturer's instructions, and then filtered through a […] nylon mesh cell strainer in 1×PBS. All pancreatic tumors were manually cut into ˜1-2 mm^3 fragments with a sterile razor blade and then enzymatically digested with Collagenase, type IV (Sigma-Aldrich), DNase, type IV (Sigma-Aldrich) and Hyaluronidase, Type V (Sigma-Aldrich) in Hank's Balanced Salt Solution for 1 h, spun down and washed as described in previous studies^61. Digested pancreatic tumor samples were treated with RBC lysis buffer and then filtered through a […] nylon mesh cell strainer in 1×PBS. Bone marrow and digested pancreatic tumor single cell suspensions were counted with a hemocytometer and then resuspended in 3% FBS/PBS. BM and digested pancreatic tumor cells (1×10^6) were Fc Blocked (anti-mouse CD16/CD32) and then surface stained for 30 min on ice protected from light with fluorescent anti-mouse antibodies including, CD11b-APC, Ly6C-PE/Cy7, Ly6G-PerCP, F4/80-BV650, MHC—II-BV605, CD206-FITC and CD40-PE/Cy5 along with isotype control antibodies (Biolegend, San Diego, CA, USA) to detect MDSC and macrophage subsets. Digested pancreatic tumor cells (1×10^6) were also Fc Blocked and then surface stained with fluorescent anti-mouse antibodies including CD3-FITC, CD8-PercP/Cy5.5, CD4-APC/Cy7, and CD40L-APC along with isotype control antibodies (Biolegend) to detect CD8^+ T cells. Subsequently, all samples were fixed with 2% paraformaldehyde for 15 min on ice protected from light. […]

A further experiment deals with iNOS. Briefly: Western blot of iNOS protein in tumors of KC-HPC mice. Type of experiment: in vivo, mouse. The conditions noted are these: KC-HPC-API vs KC-HPC mice. Here is the method: The inventors then assessed the expression of CD40 (a T cell co-stimulation marker) on M1 TAM (gated as MHC-II^+ and CD206) within the tumor from KC-HPC vs. KC-HPC-API mice. […] Single-cell suspensions of BM, digested pancreatic tumors cells and UN-KC-6141 cells treated with API (40 μM) were lysed with radioimmunoprecipitation buffer (Sigma-Aldrich), quantified with a BCA Protein Assay kit (Thermo Fisher Scientific, Waltham, MA, USA), resolved by SDS-PAGE (Thermo Fisher Scientific) and transferred onto a nitrocellulose membrane as previously described. Membranes were probed with either anti-SHIP-1 (Santa Cruz Biotechnology, Dallas, TX, USA), anti-iNOS (Cell Signaling Technology) or anti-Bcl-2 (Cell Signaling Technology, Danvers, MA, USA), all at a dilution of 1:1000. All blots were re-probed with a housekeeping protein, HRP-conjugated anti-β-actin (Sigma-Aldrich), at a dilution of 1:20,000. Membranes were then probed with the respective secondary anti-mouse or rabbit IgG HRP-conjugated antibodies (1:1000) of SHIP-1 and iNOS. Detection of SHIP-1, iNOS and β-actin proteins was performed using Super Signal West Pico or Femto Chemiluminescent Substrates (Thermo Fisher Scientific) and then imaged on a Bio-Rad Chemi Doc XRS Imaging System. Normalized densitometric ratios (divided by β-actin) were determined by quantifying WB results using Image J.

Regarding `O=c1cc(-c2ccc(O)cc2)oc2cc(O)cc(O)c12` [API, 40,5,7-Trihydroxyflavone, 5,7-Dihydroxy-2-(4-hydroxyphenyl)-4-benzopyrone], in experiment [1], the “CD40L expression on intra-tumoral CD8+ T cells” value is on record as “no significant changes”, the “intra-tumoral CD8+ T cells (flow cytometric analysis)” value is “significant increase” and the “intra-tumoral CD8+ T cells absolute cell numbers” value is given as “significant increase”. In addition, the “iNOS protein expression in tumor” value in the experiment on iNOS is “significant increase”.
